Biological target: T1, α2wt (Homo sapiens, UniProt P23416)
T1 sequence (P23416 28-452): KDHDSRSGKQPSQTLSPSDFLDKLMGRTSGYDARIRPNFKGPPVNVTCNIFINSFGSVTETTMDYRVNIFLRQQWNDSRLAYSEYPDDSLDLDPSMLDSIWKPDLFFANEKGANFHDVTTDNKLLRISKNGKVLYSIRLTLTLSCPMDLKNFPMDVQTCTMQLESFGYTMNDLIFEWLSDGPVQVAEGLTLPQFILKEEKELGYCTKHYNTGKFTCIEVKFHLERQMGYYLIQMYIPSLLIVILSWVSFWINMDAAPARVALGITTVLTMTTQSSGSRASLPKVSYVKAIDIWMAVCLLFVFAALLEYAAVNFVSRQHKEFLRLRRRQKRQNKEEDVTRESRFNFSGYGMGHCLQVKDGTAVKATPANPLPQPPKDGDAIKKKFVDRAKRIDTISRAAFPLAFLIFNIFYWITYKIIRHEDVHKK
Test: whole-cell patch clamp
Type: cell-based
Details: agonist; pH 7.4; -80 mV

EC50: Dose response of glycine from (A)
Compound: NCC(=O)O [glycine]
